# Columns and labels:
# Escherichia coli = test: MIC, nutrient broth dilution (Table 2); type: cell-based
# Description: (§1) Note: Compound (I), Compound (A) and Compound (B) were subjected to the test in the form of the sodium salt. For each test, eight male ICR-SLC strain mice were used at each dose level. MIC was determined by the nutrient broth dilution method. In determination of PD50, subcutaneous treatment was carried out twice, i.e. 1 and 4 hours after infection.
# Klebsiella pneumoniae [1] = test: MIC, nutrient broth dilution (Table 2); type: cell-based
# Description: as §1
# Pseudomonas aeruginosa [2] = test: MIC, nutrient broth dilution (Table 2); type: cell-based
# Description: as §1
# Klebsiella pneumoniae [3] = test: Intraperitoneal infection in mice, median protective dose (Table 5); type: in vivo
# Description: (§2) The relative activities of Compound (I) and Compound (C) against various intraperitioneal infections in mice evaluated by the minimum inhibitory concentrations and the means median protective doses (subcutaneously administered) are shown in Table 5.
# (§3) Note: Compound (I) and Compound (C) were subjected to the test in the form of the sodium salt. For each test, five male ICR-SLC strain mice were used at each dose level. MIC was determined by the nutrient broth dilution method. In determination of PD50, subsutaneous treatment was carried out three times, i.e. 1, 3 and 5 hours after infection.
# Pseudomonas aeruginosa [4] = test: as above; type: in vivo
# Description: as §2, §3
# Staphylococcus aureus = test: as above; type: in vivo
# Description: as §2, §3
# Streptococcus faecalis = test: as above; type: in vivo
# Description: as §2, §3
# [5] = Protein-binding rate in human serum (Table 6); type: in vitro ADME; conditions: for fraction unbound: human, serum, sodium salt
# Source text: The following data are related to the pharmacokinetic profiles of Compound (I) compared with Compound (C).
# (§4) Note: Compound (I) and Compound (C) were subjected to the test in the form of the sodium salt.
# [6] = Acute toxicity in mice, intraperitoneal (Table 9); conditions: mouse, in vivo, ip
# Source text: The acute toxicity of Compound (I) and Compound (C) in ICR strain mice when administered by intraperitoneal route are shown in Table 9.
# as §4
smiles,measurement,setting,value
"CC1(C)S[C@@H]2[C@H](NC(=O)[C@H](NC(=O)c3ccnnc3O)c3ccc(O)cc3)C(=O)N2[C@H]1C(=O)O [Compound (I), 6-[D-2-(3-hydroxypyridazine-4-carbonamido)-2-(p-hydroxyphenyl)acetamido]penicillanic acid]",MIC,"Escherichia coli; Escherichia coli strain NIHJ, sodium salt",6.25 µg/mL
same,MIC,"Escherichia coli; Escherichia coli strain No. 37, sodium salt",12.5 µg/mL
same,MIC,"Klebsiella pneumoniae [1]; Klebsiella pneumoniae strain No. 1, sodium salt",6.25 µg/mL
same,MIC,"Klebsiella pneumoniae [1]; Klebsiella pneumoniae strain No. 6, sodium salt",25 µg/mL
same,MIC,"Klebsiella pneumoniae [1]; Klebsiella pneumoniae strain No. 20, sodium salt",12.5 µg/mL
same,MIC,"Pseudomonas aeruginosa [2]; Pseudomonas aeruginosa strain NC-5, sodium salt",12.5 µg/mL
same,MIC,"Pseudomonas aeruginosa [2]; Pseudomonas aeruginosa strain T, sodium salt",25 µg/mL
same,PD50 relative to Compound (C),"Klebsiella pneumoniae [3]; mice, subcutaneous",approximately equal
same,ED50,"Klebsiella pneumoniae [3]; sc, K. pneumoniae strain No. 1, male ICR-SLC mice, subcutaneous, 1, 3 and 5 hours after infection, sodium salt, read-out: PD50",16 mg/kg
same,PD50 relative to Compound (C),"Pseudomonas aeruginosa [4]; mice, subcutaneous",inferior
same,ED50,"Pseudomonas aeruginosa [4]; sc, P. aeruginosa strain TS, male ICR-SLC mice, subcutaneous, 1, 3 and 5 hours after infection, sodium salt, read-out: PD50",22 mg/kg
same,PD50 relative to Compound (C),"Staphylococcus aureus; mice, subcutaneous",markedly superior
same,ED50,"Staphylococcus aureus; sc, S. aureus strain A24, male ICR-SLC mice, subcutaneous, 1, 3 and 5 hours after infection, sodium salt, read-out: PD50",2 mg/kg
same,ED50,"Streptococcus faecalis; Enterococcus faecalis, sc, S. faecalis strain F10, male ICR-SLC mice, subcutaneous, 1, 3 and 5 hours after infection, sodium salt, read-out: PD50",1.1 mg/kg
same,PD50 relative to Compound (C),"Streptococcus faecalis; Streptococcus faecalis, mice, subcutaneous",markedly superior
same,protein-binding rate relative to Compound (C),[5]; human serum,lower protein-binding rate
same,fraction unbound,[5]; Ultracentrifugation method,0.4
same,fraction unbound,[5]; Ultrafiltration method,0.42
same,LD50,[6],7100 mg/kg
